Patent US9346815B2, “5-chloro-2-difluoromethoxyphenyl pyrazolopyrimidine compounds, compositions and methods of use thereof” (Genentech, Inc., priority 2014, dated 2016)
Counter-ions that a name gives are not always drawn.

Key:
[1] = target: isolated recombinant JAK2 kinase domain (Homo sapiens (Human), UniProt O60674); assay: JAK2 enzyme assay (Caliper LabChip, peptide phosphorylation); type: biochemical; details: 25 μM ATP
[2] = target: isolated recombinant JAK1 kinase domain (Homo sapiens (Human), UniProt P23458); assay: JAK1 enzyme assay (Caliper LabChip, peptide phosphorylation); type: biochemical; details: isolated recombinant JAK1 kinase domain, 25 μM ATP
[3] = tested on: JAK1-dependent STAT6 phosphorylation downstream of IL-13 stimulation in BEAS-2B human bronchial epithelial cells; assay: JAK1 pathway assay in BEAS-2B cells (IL-13-pSTAT6, MSD); type: cell-based; details: read-out: IL13-pSTAT6 EC50 (uM)_BEAS-2B
Summary of the method: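 Compound preincubation lasted 1 hr for BEAS-2B cells in complete growth medium and 30 min for GM-CSF-starved TF-1 cells in serum-free medium. EC50 values were determined.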

Chain of isolated recombinant JAK2 kinase domain (O60674 849-1124): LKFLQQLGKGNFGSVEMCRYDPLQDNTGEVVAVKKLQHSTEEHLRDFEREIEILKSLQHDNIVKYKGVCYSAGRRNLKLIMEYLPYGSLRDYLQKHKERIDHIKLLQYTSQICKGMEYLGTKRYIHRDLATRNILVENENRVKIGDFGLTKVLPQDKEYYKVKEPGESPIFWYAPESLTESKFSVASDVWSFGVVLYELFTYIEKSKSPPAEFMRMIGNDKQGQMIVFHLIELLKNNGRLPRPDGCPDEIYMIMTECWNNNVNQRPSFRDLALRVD
Chain of isolated recombinant JAK1 kinase domain (P23458 875-1153): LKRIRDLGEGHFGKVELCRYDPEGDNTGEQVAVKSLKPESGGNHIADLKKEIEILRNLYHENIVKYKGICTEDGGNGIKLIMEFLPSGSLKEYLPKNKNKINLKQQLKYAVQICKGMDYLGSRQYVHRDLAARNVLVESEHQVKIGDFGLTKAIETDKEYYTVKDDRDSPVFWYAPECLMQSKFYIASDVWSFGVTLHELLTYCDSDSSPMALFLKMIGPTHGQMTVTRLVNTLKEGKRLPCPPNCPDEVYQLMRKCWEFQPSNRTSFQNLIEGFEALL

Work on `O=C(Nc1cn(CC(=O)N2CCN(Cc3ccccc3)CC2)nc1-c1cc(Cl)ccc1OC(F)F)c1cnn2cccnc12` [Example 320, N-[1-[2-(4-benzylpiperazin-1-yl)-2-oxoethyl]-3-[5-chloro-2-(difluoromethoxy)phenyl]-1H-pyrazol-4-yl]pyrazolo[1,5-a]pyrimidine-3-carboxamide] yielded a Ki [1] of 0.6 nM, a Ki [2] of 0.31 nM and an EC50 [3] of 0.0473 µM.

`O=C(Nc1cn(CC(=O)N2CCC(C(=O)N3CCNCC3)CC2)nc1-c1cc(Cl)ccc1OC(F)F)c1cnn2cccnc12` [Example 408, N-(3-(5-chloro-2-(difluoromethoxy)phenyl)-1-(2-oxo-2-(4-(piperazine-1-carbonyl)piperidin-1-yl)ethyl)-1H-pyrazol-4-yl)pyrazolo[1,5-a]pyrimidine-3-carboxamide] gave a Ki [1] of 2.29 nM, a Ki [2] of 0.59 nM and an EC50 [3] of 0.121 µM.

Compound `CN(C)CCN1CCN(C(=O)Cn2cc(NC(=O)c3cnn4cccnc34)c(-c3cc(Cl)ccc3OC(F)F)n2)CC1` [Example 379, N-[3-[5-chloro-2-(difluoromethoxy)phenyl]-1-(2-[4-[2-(dimethylamino)ethyl]piperazin-1-yl]-2-oxoethyl)-1H-pyrazol-4-yl]pyrazolo[1,5-a]pyrimidine-3-carboxamide] has a Ki [1] of 2.33 nM, a Ki [2] of 0.86 nM and an EC50 [3] of 0.0755 µM.

`CN(CC1=CC(=O)OC1)C1CCN(C(=O)Cn2cc(NC(=O)c3cnn4cccnc34)c(-c3cc(Cl)ccc3OC(F)F)n2)CC1` [Example 352, N-[3-[5-chloro-2-(difluoromethoxy)phenyl]-1-[2-(4-[methyl[(5-oxo-2,5-dihydrofuran-3-yl)methyl]amino]piperidin-1-yl)-2-oxoethyl]-1H-pyrazol-4-yl]pyrazolo[1,5-a]pyrimidine-3-carboxamide] gave a Ki [1] of 0.75 nM, a Ki [2] of 0.33 nM and an EC50 [3] of 0.0124 µM.

`O=C(Nc1cn([C@@H]2CCNC[C@H]2O)nc1-c1cc(Cl)ccc1OC(F)F)c1cnn2cccnc12` [Example 358, N-[3-[5-chloro-2-(difluoromethoxy)phenyl]-1-[(3R,4R)-3-hydroxypiperidin-4-yl]-1H-pyrazol-4-yl]pyrazolo[1,5-a]pyrimidine-3-carboxamide] showed a Ki [1] of 0.66 nM, a Ki [2] of 0.93 nM and an EC50 [3] of 0.0133 µM.

Compound `O=C(Nc1cn(CC(=O)N2CCC(C(=O)OCCN3CCOCC3)CC2)nc1-c1cc(Cl)ccc1OC(F)F)c1cnn2cccnc12` [Example 336, 2-(morpholin-4-yl)ethyl 1-(2-[3-[5-chloro-2-(difluoromethoxy)phenyl]-4-[pyrazolo[1,5-a]pyrimidine-3-amido]-1H-pyrazol-1-yl]acetyl)piperidine-4-carboxylate] has a Ki [1] of 1.05 nM, a Ki [2] of 0.49 nM and an EC50 [3] of 0.0145 µM.

In the case of `CN1CCC2CN(C(=O)Cn3cc(NC(=O)c4cnn5cccnc45)c(-c4cc(Cl)ccc4OC(F)F)n3)CC21` (stereo not drawn) [Example 430, N-(3-(5-chloro-2-(difluoromethoxy)phenyl)-1-(2-(1-methyl-hexahydropyrrolo[3,4-b]pyrrol-5(1H)-yl)-2-oxoethyl)-1H-pyrazol-4-yl)pyrazolo[1,5-a]pyrimidine-3-carboxamide], the Ki [1] is reported as 0.77 nM, the Ki [2] is reported as 0.51 nM and the EC50 [3] is reported as 0.0058 µM.

Compound `O=C(O)CNC1CCN(CCn2cc(NC(=O)c3cnn4cccnc34)c(-c3cc(Cl)ccc3OC(F)F)n2)CC1` [Example 311, 2-[[1-(2-[3-[5-chloro-2-(difluoromethoxy)phenyl]-4-[pyrazolo[1,5-a]pyrimidine-3-amido]-1H-pyrazol-1-yl]ethyl)piperidin-4-yl]amino]acetic acid] has a Ki [1] of 0.73 nM, a Ki [2] of 1.25 nM and an EC50 [3] of 2.6 µM.

`CN1CCN(C(=O)C2CCN(C(=O)Cn3cc(NC(=O)c4cnn5cccnc45)c(-c4cc(Cl)ccc4OC(F)F)n3)CC2)CC1` [Example 398, N-(3-(5-chloro-2-(difluoromethoxy)phenyl)-1-(2-(4-(4-methylpiperazine-1-carbonyl)piperidin-1-yl)-2-oxoethyl)-1H-pyrazol-4-yl)pyrazolo[1,5-a]pyrimidine-3-carboxamide] was tested, and the Ki [1] was 1.45 nM, the Ki [2] was 0.5 nM and the EC50 [3] was 0.0183 µM.

`CC(C)N1CCN(C(=O)Cn2cc(NC(=O)c3cnn4cccnc34)c(-c3cc(Cl)ccc3OC(F)F)n2)CC1` [Example 373, N-[3-[5-chloro-2-(difluoromethoxy)phenyl]-1-[2-oxo-2-[4-(propan-2-yl)piperazin-1-yl]ethyl]-1H-pyrazol-4-yl]pyrazolo[1,5-a]pyrimidine-3-carboxamide] showed a Ki [1] of 1.24 nM, a Ki [2] of 0.7 nM and an EC50 [3] of 0.0342 µM.

Compound `CN1CCC(n2cc(Cn3cc(NC(=O)c4cnn5cccnc45)c(-c4cc(Cl)ccc4OC(F)F)n3)nn2)CC1` [Example 454, N-(3-(5-chloro-2-(difluoromethoxy)phenyl)-1-((1-(1-methylpiperidin-4-yl)-1H-1,2,3-triazol-4-yl)methyl)-1H-pyrazol-4-yl)pyrazolo[1,5-a]pyrimidine-3-carboxamide] has a Ki [1] of 0.23 nM, a Ki [2] of 0.4 nM and an EC50 [3] of 0.0235 µM.

With `N#CCCN1CCN(C(=O)Cn2cc(NC(=O)c3cnn4cccnc34)c(-c3cc(Cl)ccc3OC(F)F)n2)CC1` [Example 406, N-(3-(5-chloro-2-(difluoromethoxy)phenyl)-1-(2-(4-(2-cyanoethyl)piperazin-1-yl)-2-oxoethyl)-1H-pyrazol-4-yl)pyrazolo[1,5-a]pyrimidine-3-carboxamide] the Ki [1] was 0.99 nM, the Ki [2] was 0.46 nM and the EC50 [3] was 0.0333 µM.

With `O=C(Nc1cn(CC(=O)N2CCN(C3CCOC3)CC2)nc1-c1cc(Cl)ccc1OC(F)F)c1cnn2cccnc12` (stereo not drawn) [Example 437, N-(3-(5-chloro-2-(difluoromethoxy)phenyl)-1-(2-oxo-2-(4-(tetrahydrofuran-3-yl)piperazin-1-yl)ethyl)-1H-pyrazol-4-yl)pyrazolo[1,5-a]pyrimidine-3-carboxamide] the Ki [1] was 0.88 nM, the Ki [2] was 0.38 nM and the EC50 [3] was 0.0126 µM.

`CCOC(=O)CCN(C)C1CCN(C(=O)Cn2cc(NC(=O)c3cnn4cccnc34)c(-c3cc(Cl)ccc3OC(F)F)n2)CC1` [Example 391, ethyl 3-[[1-(2-[3-[5-chloro-2-(difluoromethoxy)phenyl]-4-[pyrazolo[1,5-a]pyrimidine-3-amido]-1H-pyrazol-1-yl]acetyl)piperidin-4-yl](methyl)amino]propanoate] showed a Ki [1] of 2.49 nM, a Ki [2] of 0.91 nM and an EC50 [3] of 0.0206 µM.

Work on `O=C(Nc1cn(CC(=O)N2CCN(C3CCOCC3)CC2)nc1-c1cc(Cl)ccc1OC(F)F)c1cnn2cccnc12` [Example 429, N-(3-(5-chloro-2-(difluoromethoxy)phenyl)-1-(2-oxo-2-(4-(tetrahydro-2H-pyran-4-yl)piperazin-1-yl)ethyl)-1H-pyrazol-4-yl)pyrazolo[1,5-a]pyrimidine-3-carboxamide] yielded a Ki [1] of 0.99 nM, a Ki [2] of 0.48 nM and an EC50 [3] of 0.0074 µM.

Compound `COC(=O)C1(C)CCN(CCN2CCN(C(=O)Cn3cc(NC(=O)c4cnn5cccnc45)c(-c4cc(Cl)ccc4OC(F)F)n3)CC2)CC1` [Example 335, methyl 1-[2-[4-(2-[3-[5-chloro-2-(difluoromethoxy)phenyl]-4-[pyrazolo[1,5-a]pyrimidine-3-amido]-1H-pyrazol-1-yl]acetyl)piperazin-1-yl]ethyl]-4-methylpiperidine-4-carboxylate formate] has a Ki [1] of 2.22 nM, a Ki [2] of 0.84 nM and an EC50 [3] of 0.0121 µM.
